# Data: US20010003121A1, “Novel compounds” (AstraZeneca UK Limited, priority 1997, published 2001)
# Counter-ions that a name gives are not always drawn.
row,SMILES,melting point
1,"O=C(NCC12CC3CC(CC(C3)C1)C2)c1cc(O)ccc1Cl [Example 51, 2-Chloro-5-hydroxy-N-(tricyclo[3.3.1.1^3,7]dec-1-ylmethyl)-benzamide]",263 to 264 °C
2,"Cc1c(N)cc(N)cc1C(=O)NCC12CC3CC(CC(C3)C1)C2 [Example 66, 3,5-Diamino-2-methyl-N-(tricyclo[3.3.1.1^3,7]dec-1-ylmethyl)-benzamide]",220 °C (dec.)
3,"CSc1ccccc1C(=O)NCC12CC3CC(CC(C3)C1)C2 [Example 18, 2-(Methylthio)-N-(tricyclo[3.3.1.1^3,7]dec-1-methyl)-benzamide]",171 to 172 °C
4,"Nc1cccc(Cl)c1C(=O)NCCC12CC3CC(CC(C3)C1)C2 [Example 29, 2-Amino-6-chloro-N-(2-[tricyclo[3.3.1.1^3,7]dec-1-yl]ethyl)-benzamide]",132 to 134 °C
5,"O=C(NCCC12CC3CC(CC(C3)C1)C2)c1ccccc1Cl [Example 72, 2-Chloro-N-(2-[tricyclo[3.3.1.1^3,7]dec-1-yl]ethyl)-benzamide]",125 to 127 °C
6,"O=C(NCC12CC3CC(CC(C3)C1)C2)c1c(Cl)cccc1Cl [Example 4, 2,6-Dichloro-N-(tricyclo[3.3.1.1^3,7]dec-1-methyl)-benzamide]",246 to 247 °C
7,"CNc1ccc(Cl)c(C(=O)NCC23CC4CC(CC(C4)C2)C3)c1 [Example 62, 2-Chloro-5-methylamino-N-(tricyclo[3.3.1.1^3,7]dec-1-ylmethyl)-benzamide]",163 to 164 °C
8,"O=C(NCC12CC3CC(CC(C3)C1)C2)c1cc(NCCN2CCCCC2)ccc1Cl (as salt: hydrochloride) [Example 70, 2-Chloro-5-(2-(piperidin-1-yl)ethylamino)-N-(tricvclo(3.3.1.1^3,7]dec-1-ylmethyl)-benzamide, hydrochloride]",142 to 143 °C (dec.)
9,"CN(C)CCCOc1ccc(Sc2ncccc2C(=O)NCC23CC4CC(CC(C4)C2)C3)cc1 (as salt: hydrochloride) [Example 48, 2-(4-(3-N,N-dimethylamino)propyloxyphenylthio)-N-(tricyclo[3.3.1.1^3,7]dec-1-ylmethyl)-3-pyridine carboxamide, dihydrochloride]",177 to 178 °C
10,"O=C(NCC12CC3CC(CC(C3)C1)C2)c1c(F)cccc1C(F)(F)F [Example 13, 2-(Trifluoromethyl)-6-flouro-N-(tricyclo(3.3.1.1^3,7]dec-1-methyl)-benzamide]",151 to 153 °C
11,"O=C(NCC12CC3CC(CC(C3)C1)C2)c1cc(Cl)cc(Cl)c1 [Example 2, 3,5-Dichloro-N-(tricyclo[3.3.1.1^3,7]dec-1-methyl)-benzamide]",197 to 198 °C
12,"O=C(NCC12CC3CC(CC(C3)C1)C2)c1c(F)cccc1F [Example 12, 2,6-Difluoro-N-(tricyclo[3.3.1.1^3,7]dec-1-methyl)-benzamide]",162 to 163 °C
13,"O=C(NCC12CC3CC(CC(C3)C1)C2)c1cc(I)ccc1Cl [Example 80, 2-Chloro-5-iodo-N-(tricyclo[3.3.1.1^3,7]dec-1-ylmethyl)-benzamide]",161.4 to 161.5 °C
14,"O=C(NCC12CC3CC(CC(C3)C1)C2)c1cccc(F)c1Cl [Example 41, 2-Chloro-3-fluoro-N-(tricyclo[3.3.1.1^3,7]dec-1-ylmethyl)-benzamide]",149 to 151 °C
15,"O=C(NCCC12CC3CC(CC(C3)C1)C2)c1cccc(Cl)c1Cl [Example 73, 2,3-Dichloro-N-(2-[tricyclo(3.3.1.1^3,7]dec-1-yl]ethyl)-benzamide]",158 to 159 °C
16,"CN(C)CCNc1cccc(C(=O)NCC23CC4CC(CC(C4)C2)C3)c1Cl [Example 56, 2-Chloro-3-(N,N-dimethylamino)ethylamino-N-(tricyclo[3.3.1.1^3,7]dec-1-ylmethyl)-benzamide]",221 °C
17,"O=C(NCC12CC3CC(CC(C3)C1)C2)c1ccccc1[N+](=O)[O-] [Example 9, 2-Nitro-N-(tricyclo[3.3.1.1^3,7]dec-1-methyl)-benzamide]",> 250 °C
18,O=C(NCC12CC3CC(CC(C3)C1)C2)c1cccc(O)c1Cl [Example 59],234 to 235 °C
19,"Cc1ccc(Sc2ncccc2C(=O)NCC23CC4CC(CC(C4)C2)C3)cc1 [Example 17, 2-(4-Methylphenylthio)-N-(tricyclo[3.3.1.1^3,7]dec-1-methyl)-3-pyridine carboxamide]",166 to 169 °C
20,COc1cc(OC)cc(C(=O)NCC23CC4CC(CC(C4)C2)C3)c1 [Example 68],130 to 133 °C
21,"COc1cc(OC)c(C)c(C(=O)NCC23CC4CC(CC(C4)C2)C3)c1 [Example 67, 3,5-Dimethoxy-2-methyl-N-(tricyclo[3.3.1.1^3,7]dec-1-ylmethyl)-benzamide]",173 to 175 °C
22,"NCCSc1ncccc1C(=O)NCC12CC3CC(CC(C3)C1)C2 (as salt: trifluoroacetate) [Example 31, 2-(2-Aminoethylthio)-N-(tricyclo[3.3.1.1^3,7]dec-1-ylmethyl)-3-pyridine carboxamide, trifluoroacetate]",184 °C

# Other lines, results leading:
row,melting point,SMILES
1,258 to 260 °C,"CN(C)CCNc1ncccc1C(=O)NCC12CC3CC(CC(C3)C1)C2 (as salt: hydrochloride) [Example 32, 2-(2-(N,N-Dimethylamino)ethylamino)-N-(tricyclo[3.3.1.1^3,7]dec-1-ylmethyl)-3-pyridine carboxamide, dihydrochloride]"
2,155 °C,"Cc1ccc(C)c(C(=O)NCC23CC4CC(CC(Cl)(C4)C2)C3)c1 [Example 78, 2,5-Dimethyl-N-(3-chloro-tricyclo[3.3.1.1^3,7]dec-1ylmethyl)-benzamide]"
3,144 to 147 °C,"CN(C)CCOc1ccc(Cl)c(C(=O)NCC23CC4CC(CC(C4)C2)C3)c1 [Example 60, 2-Chloro-5-(N,N-dimethylamino)ethyloxy-N-(tricyclo[3.3.1.1^3,7]dec-1-ylmethyl)-benzamide]"
4,147 to 150 °C,"O=C(O)CSc1ncccc1C(=O)NCC12CC3CC(CC(C3)C1)C2 [Example 45, 3-[[(Tricyclo[3.3.1.1^3,7]dec-1-ylmethyl)amino]carbonyl]pyridyl-2-thioacetic acid]"
5,62 to 65 °C,"N#Cc1ccccc1Sc1ccccc1C(=O)NCC12CC3CC(CC(C3)C1)C2 [Example 16, 2-(2-Cyanophenylthio)-N-(tricyclo[3.3.1.1^3,7]dec-1-methyl)-benzamide]"
6,153 °C,"O=C(NCC12CC3CC(CC(Cl)(C3)C1)C2)c1ccccc1Cl [Example 76, 2-Chloro-N-(3-chloro-tricyclo[3.3.1.1^3,7]dec-1-ylmethyl)-benzamide]"
7,194 to 195 °C,"O=C(NCC12CC3CC(CC(C3)C1)C2)c1ccccc1I [Example 8, 2-Iodo-N-(tricyclo[3.3.1.1^3,7]dec-1-methyl)-benzamide]"
8,143 °C (dec.),"O=C(NCC12CC3CC(CC(C3)C1)C2)c1cc(NCCNCCO)ccc1Cl (as salt: hydrochloride) [Example 71, 5-(N-(2-Hydroxyethyl)-2-aminoethyl)amino-2-chloro-N-(tricyclo[3.3.1.1^3,7]dec-1-ylmethyl)-benzamide, dihydrochloride]"
9,144 to 145 °C,O=C(NCC12CC3CC(CC(C3)C1)C2)c1cc(NCCCl)ccc1Cl
10,153 °C,"Cc1ccc(C)c(C(=O)NCCC23CC4CC(CC(C4)C2)C3)c1 [Example 75, 2,5-Dimethyl-N-(2-[tricyclo[3.3.1.1^3,7]dec-1-yl]ethyl)-benzamide]"
11,156 to 157 °C,"O=C(NCC12CC3CC(CC(C3)C1)C2)c1ccccc1Cc1ccccc1 [Example 23, 2-(Phenylmethyl) -N-(tricyclo[3.3.1.1^3,7]dec-1-methyl)-benzamide]"
12,185 °C,"O=C(NCC12CC3CC(CC(C3)C1)C2)c1cccc([N+](=O)[O-])c1Cl [Example 52, 2-Chloro-3-nitro-N-(tricyclo[3.3.1.1^3,7]dec-1-ylmethyl)-benzamide]"
13,173 to 175 °C,"COc1cc(OC)c(C)c(C(=O)NCC23CC4CC(CC(Cl)(C4)C2)C3)c1 [Example 79, 3,5-Dimethoxy-2-methyl-N-(3-chloro-tricyclo[3.3.1.1^3,7]dec-1ylmethyl)-benzamide]"
14,125 to 126 °C,"O=C(NCC12CC3CC(CC(C3)C1)C2)c1cccc(Cl)c1 [Example 20, 3-Chloro-N-(tricyclo[3.3.1.1^3,7]dec-1-methyl)-benzamide]"
15,178 °C,"O=C(NCC12CC3CC(CC(C3)C1)C2)c1cc([N+](=O)[O-])ccc1Cl [Example 53, 2-Chloro-5-nitro-N-(tricyclo[3.3.1.1^3,7]dec-1-ylmethyl)-benzamide]"
16,154 to 155 °C,O=C(NCC12CC3CC(CC(C3)C1)C2)c1cc(N2CC2)ccc1Cl
17,161 to 162 °C,"O=C(NCC12CC3CC(CC(C3)C1)C2)c1cc(Cl)ccc1Cl [Example 61, 2,5-Dichloro-N-(tricyclo[3.3.1.1^3,7]dec-1-ylmethyl)-benzamide]"
18,135 to 136 °C,"COc1ccc(OC)c(Sc2ncccc2C(=O)NCC23CC4CC(CC(C4)C2)C3)c1 [Example 37, 2-(2,5-Dimethoxyphenylthio)-N-(tricyclo[3.3.1.1^3,7]dec-1-ylmethyl)-3-pyridine carboxamide]"
19,206 to 207 °C,"O=C(NCC12CC3CC(CC(C3)C1)C2)c1ccc2[nH]ccc2c1 [Example 28, N-(tricyclo[3.3.1.1^3,7]dec-1-methyl)-5-indole carboxamide]"
20,130 to 131 °C,"COc1ccc(Sc2ncccc2C(=O)NCC23CC4CC(CC(C4)C2)C3)cc1 [Example 40, 2-(4-Methoxyphenylthio)-N-(tricyclo[3.3.1.1^3,7]dec-1-ylmethyl)-3-pyridine carboxamide]"
21,181 to 183 °C,CN(C)CCOc1ccccc1C(=O)NCC12CC3CC(CC(C3)C1)C2.Cl
22,86 to 87 °C,"O=C(NCC12CC3CC(CC(C3)C1)C2)c1cccc(NCCNCCc2c[nH]cn2)c1Cl [Example 77, 2-Chloro-3-(N-(2-[imidazoyl-4-yl]ethyl)-2-aminoethyl)amino-N-(tricyclo[3.3.1.1^3,7]dec-1-ylmethyl)-benzamide]"
